The pIC50 is the IC50 on a negative log10 scale, so that one unit is a factor of ten.

The record followed here is BindingDB's records for doi:10.1016/s0960-894x(01)00264-5 (Shionogi, 2001).

Molecules are shown by their SMILES. pIC50: −log10 of the molar value.

The test deals with Chymotrypsinogen A (Bos taurus) (UniProt P00766). Put plainly: Compound was evaluated for its inhibitory activity against bovine pancreatic alpha-chymotrypsin.

For the compound `Cc1ccc(N2C(=O)N(c3ccc(C)cc3)C2=O)cc1` [1,3-Di-p-tolyl-[1,3]diazetidine-2,4-dione], the pIC50 is 8.62.
